These results are taken from patent US9302989B2 (priority 2010, dated 2016).

The target of the experiment is NAMPT (Homo sapiens (Human), UniProt P43490). The experiment is described as follows: biochemical.
Chain of NAMPT (P43490 whole entry, looked up): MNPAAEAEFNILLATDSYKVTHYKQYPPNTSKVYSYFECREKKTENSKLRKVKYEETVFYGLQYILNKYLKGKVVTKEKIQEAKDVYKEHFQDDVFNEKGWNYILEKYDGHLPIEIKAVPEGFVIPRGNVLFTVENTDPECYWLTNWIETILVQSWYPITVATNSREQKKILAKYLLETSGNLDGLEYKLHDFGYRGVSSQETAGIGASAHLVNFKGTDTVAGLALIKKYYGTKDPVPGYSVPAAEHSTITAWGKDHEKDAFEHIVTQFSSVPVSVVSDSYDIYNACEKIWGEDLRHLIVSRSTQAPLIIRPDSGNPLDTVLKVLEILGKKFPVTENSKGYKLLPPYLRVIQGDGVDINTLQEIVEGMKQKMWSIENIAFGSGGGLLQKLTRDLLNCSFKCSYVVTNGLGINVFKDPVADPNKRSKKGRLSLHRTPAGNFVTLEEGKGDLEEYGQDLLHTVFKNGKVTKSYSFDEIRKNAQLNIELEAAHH

Description: Determination of the utility of compounds having Formula (I) as binders to and inhibitors of NAMPT was performed using a Time-Resolved Fluorescence Resonance Energy Transfer (TR-FRET) binding assay.
Time-Resolved Fluorescence Resonance Energy Transfer (TR-FRET) Binding Assay of NAMPT
Plates were covered, and reactions were carried out for 2-3 hours. Plates were read with Envision (Laser Lantha low volume protocol) after 2 to 3 hours.

In the case of `CC(C)CCC(=O)Nc1ccc(NC(=O)N2Cc3ccccc3C2)cc1` [Example 294, N-{4-[(4-methylpentanoyl)amino]phenyl}-1,3-dihydro-2H-isoindole-2-carboxamide], the IC50 was 8.14 nM.

A word on the IC50: it is the point on the concentration scale where inhibition reaches its midpoint. High values mean a need for much substance, low ones inhibition by little substance.
